# Tests used:
# [1] = target: T1, human recombinant GCS expressed in insect cells (Homo sapiens, UniProt Q16739); assay: Inhibition of GCS; assay type: biochemical
# T1 construct: made in house; host or cells: insect cells
# T1 sequence (Q16739 1-394): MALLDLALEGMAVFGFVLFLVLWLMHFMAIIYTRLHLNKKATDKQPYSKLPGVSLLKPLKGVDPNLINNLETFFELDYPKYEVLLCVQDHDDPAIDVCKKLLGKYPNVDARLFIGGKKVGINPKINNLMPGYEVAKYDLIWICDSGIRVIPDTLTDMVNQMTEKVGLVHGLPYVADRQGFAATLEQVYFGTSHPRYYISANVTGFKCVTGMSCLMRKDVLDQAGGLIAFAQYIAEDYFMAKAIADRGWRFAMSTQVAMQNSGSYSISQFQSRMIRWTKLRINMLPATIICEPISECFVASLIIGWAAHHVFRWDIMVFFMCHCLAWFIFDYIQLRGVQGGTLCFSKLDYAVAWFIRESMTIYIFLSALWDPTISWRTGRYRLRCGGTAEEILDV
# Experimental: The assay for inhibition of GCS was performed essentially as described in Platt et al., J. Biol. Chem., (1994), 269, 27108, the enzyme source being human recombinant GCS expressed in insect cells.
# [2] = target: T2, non-lysosomal-β-glucocerebrosidase (Homo sapiens, UniProt Q9HCG7); assay: Inhibition of non-lysosomal-β-glucocerebrosidase; assay type: biochemical; conditions: whole cell extracts of MCF7 as enzyme source; 5 mM 4-MU β-glucoside; pH 5.8
# T2 construct: whole cell extracts of MCF7 (a human breast carcinoma cell line) was used as the source of the enzyme; endogenous in cells; host or cells: MCF7 whole cell extract
# T2 sequence (Q9HCG7 1-927): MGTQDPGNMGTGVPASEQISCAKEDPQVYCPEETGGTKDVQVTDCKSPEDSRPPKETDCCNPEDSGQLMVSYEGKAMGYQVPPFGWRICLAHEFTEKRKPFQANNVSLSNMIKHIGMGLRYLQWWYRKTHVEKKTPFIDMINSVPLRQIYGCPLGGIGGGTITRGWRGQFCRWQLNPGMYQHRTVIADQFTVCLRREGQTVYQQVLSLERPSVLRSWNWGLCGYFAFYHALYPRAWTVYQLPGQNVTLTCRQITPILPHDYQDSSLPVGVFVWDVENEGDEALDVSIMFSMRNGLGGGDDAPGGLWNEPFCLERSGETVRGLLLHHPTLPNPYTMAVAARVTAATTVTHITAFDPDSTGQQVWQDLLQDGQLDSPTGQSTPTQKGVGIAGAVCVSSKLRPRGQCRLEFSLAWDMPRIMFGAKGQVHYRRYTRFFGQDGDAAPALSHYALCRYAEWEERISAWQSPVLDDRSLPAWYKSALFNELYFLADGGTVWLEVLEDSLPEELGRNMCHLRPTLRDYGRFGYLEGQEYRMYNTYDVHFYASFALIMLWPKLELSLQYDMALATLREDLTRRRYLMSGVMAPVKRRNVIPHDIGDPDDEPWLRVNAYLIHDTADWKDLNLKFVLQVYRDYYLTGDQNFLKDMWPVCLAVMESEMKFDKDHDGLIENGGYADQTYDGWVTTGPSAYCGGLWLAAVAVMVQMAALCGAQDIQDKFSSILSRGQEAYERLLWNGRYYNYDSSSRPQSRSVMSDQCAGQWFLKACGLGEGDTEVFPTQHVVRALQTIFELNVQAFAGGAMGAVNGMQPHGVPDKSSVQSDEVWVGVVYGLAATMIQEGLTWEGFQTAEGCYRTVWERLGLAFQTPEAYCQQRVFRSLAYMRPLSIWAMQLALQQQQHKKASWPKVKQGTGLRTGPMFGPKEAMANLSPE
structure (smiles),measurement,setting,value
OC[C@@H]1[C@H](O)[C@H](O)[C@@H](O)CN1Cc1ccc(OCc2ccccc2)cc1 [Example 1],IC50,[1],1.3 µM
same,IC50,[2],10 µM

# Source: US20080234324A1, “Piperidine Derivatives as Gcs Inhibitors” (priority 2004, published 2008)
